Common to all, as to experiment: NCI tumour cell line growth inhibition, 48 h
The subject of test [1] is MDA-MB-435.
Test [2] concerns NCI-H23 lung.
The test system of test [3] is SK-MEL-5 melanoma.
Test [4] relates to HCT-116 colon.
The subject of test [5] is ACHN renal.
Test [6] has as its system MCF7 breast.
Test [7] has as its system IGROV1 ovarian.
The test system of test [8] is SK-MEL-28 melanoma.
In test [9] the test system is SK-MEL-2 melanoma.
For test [10], the system named is TK-10 renal.

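Protocol summary: plate cells (96-well), add compound at 5 concentrations, incubate 48 h, interpolate endpoints linearly. GI50 = concentration required for 50% inhibition of growth. At the TGI there is no net growth.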 Bounds are passed on as bounds.

As to `COc1cc(C(=O)O[C@H](C(N)=O)[C@]2(C)CO2)c2ccccc2c1`, the GI50 in test [1] was 23.7 µM; in [2], 7.95 µM; in test [3] it was 7.52 µM; in test [4] it was 5.21 µM; in [5], 15.9 µM; in [6], 27.3 µM. Further, the GI50 in test [7] was 34.6 µM; in [8] it was 15.6 µM; in test [9] it was 17.2 µM; in [10], 19.7 µM. The TGI was 53.2 µM in test [1]; 21.8 µM in [2]; 22 µM in test [3]; 15.8 µM in [4]; 30.9 µM in [5]; more than 100 µM in test [6]. The TGI in [7] came out at 98.4 µM; in [8], 31.5 µM; in test [9] it was 42.7 µM; in test [10], 37.5 µM.
Turning to `COc1ccc(C2CC(=O)c3c(OC)cc(OC)cc3O2)cc1` (stereo not drawn), the GI50 in test [1], in test [2], in [3], in test [4], in [5] and in [6] was more than 100 µM in each case. In addition, the GI50 in test [7], in [8], in [9] and in [10] was more than 100 µM each time. Moreover, the TGI in test [1], in test [2], in [3], in [4], in test [5] and in test [6] was more than 100 µM throughout. Moreover, the TGI in test [7], in [8], in [9] and in test [10] was more than 100 µM in each case.
As to `O=C(O)C1C(C(=O)O)C(C(=O)O)C1C(=O)O` (stereo not drawn), the TGI in test [1], in [2], in test [3], in test [4], in [5] and in test [6] was more than 100 µM each time. Also, the TGI in [7], in test [8], in test [9] and in test [10] was more than 100 µM in each case.
With `Cn1cc(C2=C(c3cn(C)c4c(N)cccc34)C(=O)NC2=O)c2ccccc21`, the GI50 is 0.0872 µM in test [1]; 4.33 µM in test [2]; 1.38 µM in [3]; 1.03 µM in test [4]; 1.34 µM in [5]; 0.673 µM in [6]. For the same compound, the GI50 is 4.2 µM in test [7], 3.43 µM in [8], 1.56 µM in test [9] and 4.28 µM in [10]. The TGI in [1] is more than 25 µM; in test [2] it was 21.3 µM; in [3] it was more than 14.2 µM; in [4] it was more than 20.6 µM; in test [5], more than 23.9 µM; in test [6] it was more than 20.9 µM. Further, the TGI is more than 19.6 µM in [7], more than 20.6 µM in test [8], 11 µM in test [9] and 18.3 µM in test [10].
For `C[C@]12CC[C@@H]3c4ccc(O)cc4C[C@@H](CCCCCCCCCS(=O)CCCC(F)(F)C(F)(F)F)[C@H]3[C@@H]1CC[C@@H]2O` (stereo partly drawn), the GI50 in test [1], in test [2], in [3], in test [5], in test [7] and in test [8] was more than 100 µM each time. Besides, the GI50 in test [9] was more than 100 µM; in test [10], more than 51.8 µM. The TGI in test [1], in test [2], in [3], in test [4], in test [5] and in test [6] was more than 100 µM in each case. Also, the TGI in test [7], in test [8], in test [9] and in test [10] was more than 100 µM throughout.
Consider `CC(C)(C)C1=CC(=CC=C2C=CN(CCCCCCCCCCCO)C=C2)C=C(C(C)(C)C)C1=O`, for which the TGI was 3.4 µM in test [1]; 10.6 µM in [2]; 3.31 µM in test [3]; 3.05 µM in test [4]; more than 25.2 µM in test [5]; 1.23 µM in test [6]. The TGI turned out to be 2.26 µM in [7], 3 µM in test [8], 3.5 µM in test [9] and 3.67 µM in test [10].
Regarding `Cc1[nH]c(N=Nc2ccccc2)nc1N=Nc1ccccc1`, the GI50 in [1] is 3.35 µM; in test [2], 3.28 µM; in [3] it was 2.41 µM; in [4] it was 3.12 µM; in test [5], 2.15 µM; in test [6], 2.73 µM. Also, the GI50 is 1.6 µM in test [7], 4.5 µM in test [8], 3.59 µM in test [9] and 1.85 µM in [10]. Besides, the TGI in test [1] was 17.9 µM; in test [2] it was more than 36.3 µM; in test [3] it was 7.83 µM; in test [4] it was 27.6 µM; in [5] it was 7.89 µM; in test [6] it was 15.3 µM. Besides, the TGI is 5.15 µM in test [7], more than 41 µM in [8], 19.1 µM in test [9] and more than 32.9 µM in test [10].
Consider `CN1C(NC(=O)c2ccc(Cl)nc2)=NS(=O)(=O)c2cc(Cl)ccc21`, for which the GI50 in [1], in [2], in test [3], in test [4], in test [5] and in [6] was more than 100 µM in each case. The GI50 in test [7], in test [8], in test [9] and in test [10] was more than 100 µM in each case. Besides, the TGI in test [1], in test [2], in test [3], in test [4], in test [5] and in test [6] was more than 100 µM throughout. For the same compound, the TGI in test [7], in [8], in test [9] and in test [10] was more than 100 µM each time.

For the origin of these results see PubChem BioAssay (NCI).
